Source: patent publication US20040214782A1, “Treatment or prevention of coccidiosis” (priority 1999, published 2004)

Key:
[1] = system: Eimeria culture (93% E bovis, 4% E. auburnenis and 3% E. zuernii); assay: Example 2: prevention of coccidiosis in Eimeria challenged calves, treated day 10 post-challenge; type: in vivo; details: for Mortality Rates: 10 calves, 28 day study; for clinical responses compared to saline treated animals: conclusion of Example 2; for oocyst shedding compared with the saline controls: days 19-28 post-infection; for oocyst shedding compared with the saline controls / mean daily attitude scores compared to the saline controls / mean daily fecal consistency scores compared with the saline treated calves / mean daily hydration scores compared to the saline treated calves: tilmicosin 10 mg/kg SC once, amprolium 10 mg/kg oral 5 days; for calves that died due to coccidiosis: deaths on day 23 and day 28 post-infection; for mean daily attitude scores compared to the saline controls / mean daily fecal consistency scores compared with the saline treated calves: p≦0.05
Excerpt: Administration of amprolium was compared with tilmicosin, a commercially available macrolide antibiotic, in the prevention of coccidiosis in Eimeria challenged calves.
Sixty naive calves were housed in five holding pens (12 animals/pen). Calves were held 7 days prior to challenge in order to acclimate to the facility. On days −6, −4, and −2 pre-challenge fecal samples were obtained for semi-quantitative oocyst counts. On day −4 pre-challenge, oocysts were speciated if present. On day 0 calves were inoculated orally with the Eimeria culture. Temperatures were determined and recorded at approximately the same time each day for the duration of the study. Attitude, hydration and fecal consistency scores were evaluated daily. Post-challenge, fecal samples were collected on days 2, 4, 6, 8 and 10. Oocysts were speciated on day 10 post-challenge.
On day 10 post-challenge, each of fifty animals was randomly allotted to one of five treatment groups. Agents were either administered subcutaneously in the pre-scapular region of the neck or drench dosed orally.
Post-treatment, fecal samples were taken for semi-quantitative analysis of the shedding of coccidia oocysts on days 12, 14, 16 and 18. Beginning on day 19 and continuing through day 28, daily fecal samples were evaluated for semi-quantitative counts. Speciation of shed oocysts was performed on days 19-21, 23, 26 and 28.
Calves dying during the course of the study or euthanized due to a moribund condition associated with clinical coccidiosis were considered mortalities. Mortalities were necropsied and gross findings were recorded. At study termination (day 28), all remaining animals were weighed, euthanized, and post mortem examinations conducted.
Description of Disease Outbreak—Calves were inoculated orally with 2 ml of a coccidia challenge containing 125,000 sporulated oocysts with a species percent count of 93% E bovis, 4% E. auburnenis and 3% E. zuernii coccidia oocysts. At 19 days post-challenge, oocyst shedding was detected.

[2] = system: bovine coccidia (Eimeria bovis ~90% and Eimeria auburnenis ~10%); assay: Example 1: coccidiosis in Eimeria challenged calves, treated once clinical disease and oocyst shedding had begun; type: in vivo; details: for mean daily attitude scores compared to the saline controls / mean daily fecal consistency scores compared to the saline treated calves / number of animals that ceased oocyst shedding compared to the saline treated calves: amprolium oral SIDX5; for Mortality Rates: 8 calves, 21 day study; for calves that died due to coccidiosis: deaths within 24 hours of dosing; for number of animals that ceased oocyst shedding compared to the saline treated calves: from day 6 post-dosing, Formula II 5 and 2.5 mg/kg
Excerpt: Administration of an azalide macrolide antibiotic according to the invention was compared with administration of amprolium, a commercially available agent, and saline control solution, in preventing full development of coccidiosis in Eimeria challenged calves.
Eighty naive calves weighing approximately 110-125 kg were housed in twenty holding pens (4 animals/pen) 16 days prior to study initiation. […] The calves were acclimated in order to facilitate coccidial exposure and allow time for clinical signs to develop. On day 14, with no signs of naturally occurring coccidiosis in the calves, each calf was challenged orally with a mixed culture of bovine coccidia (Eimeria bovis˜90% and Eimeria auburnenis ˜10%). Calves were each also challenged orally with 1.25×10^7 oocysts and observed for signs of clinical disease. On day 23 post-challenge, calves began to show signs of clinical disease and fecal samples were taken to determine oocyst shedding.
Calves were randomly allotted to one of six treatment groups. They were weighed at allotment and treatments administered subcutaneously in the pre-scapular region of the neck. Amprolium was administered by drench dosing (SIDX5) beginning on the day of allotment.
Rectal temperatures were determined and recorded at approximately the same time each day for the 21 day duration of the study. Attitude, hydration and fecal consistency scores were evaluated daily. Daily fecal samples were taken for qualitative analysis of the shedding of oocysts. Mortalities were necropsied and gross findings were recorded.
At termination of the experiment, surviving animals were weighed, euthanized, and post-mortem examinations conducted.

[3] = Formula II 5 and 2.5 mg/kg SC once, p>0.05
[4] = amprolium (Corid 20% soluble powder) oral drench SIDX5

Structure (SMILES) | 21 day average daily weight gain relative to saline [1] | clinical responses compared to saline treated animals [1] | oocyst shedding compared with the saline controls [1] | calves that died due to coccidiosis [1] | mean daily attitude scores compared to the saline controls [1] | mean daily fecal consistency scores compared with the saline treated calves [1] | mean daily hydration scores compared to the saline treated calves [1] | mean daily attitude scores compared to the saline controls [2, 3] | mean daily fecal consistency scores compared to the saline treated calves [2, 3] | clinical responses (clinical scores, weight gain and oocyst shedding) compared to the saline control group ([2]; conclusion of Example 1) | calves that died due to coccidiosis ([2]; azalide at 5 and 2.5 mg/kg) | number of animals that ceased oocyst shedding compared to the saline treated calves ([2]; p>0.05) | other results
CCCc1ncc(C[n+]2ccccc2C)c(N)n1 [Amprolium, amprolium] | Numerical increases in weight gain | improved clinical responses | decreased oocyst shedding | One animal | significant reductions | statistically significant reductions | reductions | significant reductions | statistically significant reductions | improved clinical responses | one | significant increase | 21 Day Average Daily Gain ([1]; amprolium 10 mg/kg, 5 days drench dosing): 0.60 kg; Mortality Rates ([1]; amprolium (Corid 9.6% Oral Solution) 10 mg/kg, 5 days drench dosing): 1/10 (10%); 21 Day Average Daily Gain [2, 4]: 0.75 kg; Proportion of infected calves that ceased oocyst shedding 6 days post-treatment [2, 4]: 7/7 (100%); Mortality Rates [2, 4]: 1/8 (13%)
CCCN(C)C[C@]1(O)[C@H](C)O[C@@H](O[C@H]2[C@H](C)[C@@H](O[C@@H]3O[C@H](C)C[C@H](N(C)C)[C@H]3O)[C@@](C)(O)C[C@@H](C)CN[C@H](C)[C@@H](O)[C@](C)(O)[C@@H](CC)OC(=O)[C@@H]2C)C[C@@]1(C)OC [Compound of Formula II] | – | – | – | – | – | – | – | significant reductions | statistically significant reductions | improved clinical responses | no mortalities | significant increase | 21 Day Average Daily Gain ([2]; 2.5 mg/kg, SIDX1, SC): 1.03 kg; Proportion of infected calves that ceased oocyst shedding 6 days post-treatment ([2]; 2.5 mg/kg, SIDX1, SC): 7/8 (88%); Mortality Rates ([2]; 2.5 mg/kg, SIDX1, SC): 0/8 (0%); 21 Day Average Daily Gain ([2]; 5 mg/kg, SIDX1, SC): 0.79 kg; Proportion of infected calves that ceased oocyst shedding 6 days post-treatment ([2]; 5 mg/kg, SIDX1, SC): 7/8 (88%); Mortality Rates ([2]; 5 mg/kg, SIDX1, SC): 0/8 (0%); mean daily hydration scores compared to the saline treated calves [2, 3]: statistically significant reductions; 21 day weight gain compared to the saline controls ([2]; azalide at 5 and 2.5 mg/kg): Numerical increases in weight gain; efficacy relative to amprolium ([2]; conclusion of Example 1, less complicated dosing regimen): comparable to that of amprolium
CC[C@H]1OC(=O)C[C@@H](O)[C@H](C)[C@@H](O[C@@H]2O[C@H](C)[C@@H](O)[C@H](N(C)C)[C@H]2O)[C@@H](CCN2C[C@H](C)C[C@H](C)C2)C[C@@H](C)C(=O)/C=C/C(C)=C/[C@@H]1CO[C@@H]1O[C@H](C)[C@@H](O)[C@@H](OC)[C@H]1OC [Tilmicosin, tilmicosin] | responded similarly | improved clinical responses | decreased oocyst shedding | Two animals died | significant reductions | statistically significant reductions | reductions | – | – | – | – | – | 21 Day Average Daily Gain ([1]; tilmicosin 10 mg/kg SIDX1, SC): 0.21 kg; Mortality Rates ([1]; tilmicosin 10 mg/kg SIDX1, SC): 2/10 (20%)
